In BindingDB's records for doi:10.1021/jm701358v (2008):

Target: Bcl-xL (Homo sapiens)
Assay: Binding affinity to human Bcl-xL protein by fluorescence polarization assay

**Q.** For `O=C(c1ccc(Oc2ccccc2)cc1)c1cc(C(=O)c2nc3ccccc3s2)c(O)c(O)c1O`, which Ki is on record?
**A.** Its Ki is 1110 nM.
